The source made the active and inactive calls. The rule behind the calls is not given here.

Experimental findings from ChEMBL document CHEMBL5346925, “3,4-Dihydrobenzo[e][1,2,3]oxathiazine 2,2-dioxide analogs act as potential AMPA receptor potentiators with antidepressant activity” (Eur J Med Chem, 2023) are described below.

The target of data set [1] is Glutamate receptor ionotropic, AMPA (Rattus norvegicus) (UniProt P19491+P19492+P19493+P19490). The data set can be described thus: Agonist activity at AMPA receptor in rat Primary neuron cells assessed as increase in fluorescence level at 1 uM incubated for 1 hr by calcium 2+ influx assay relative to s-AMPA coupled TAK-137. Format: cell-based.
The nature of data set [2]: Toxicity in mouse assessed as change in body weight at 0.2 to 0.4 mg/kg, ip administered once daily for 2 weeks. Format: organism-based. The note with it: in vivo, 336 h, dose 0.2-0.4 mg/kg.
A short description of data set [3]: AUC (0 to t) in Sprague-Dawley rat at 1 mg/kg, po by LC-MS/MS analysis. The class given is ADME, organism-based. On the set-up: dose 1 mg/kg, route po. To be noted: in vivo.
In the next data set the test system is Mus musculus. Briefly: Antidepressant activity in chronic restraint induced depressive mouse assessed as rescue in immobility time at 0.03 to 0.05 mg/kg administered for 1 day after 14th day by forced swimming test. The class given is functional, organism-based. The note with it: dose 0.03-0.05 mg/kg.
Data set [4] in a line: Drug concentration in Sprague-Dawley rat brain at 1 mg/kg, po measured after 2 hrs by LC-MS/MS analysis. Format: ADME, organism-based. To be noted: read-out: Ct.
The nature of data set [5]: Drug concentration in Sprague-Dawley rat plasma at 1 mg/kg, po measured after 6 hr by LC-MS/MS analysis. Format: ADME, organism-based.
Data set [6] is described as follows: Drug concentration in Sprague-Dawley rat plasma at 1 mg/kg, po measured after 4 hr by LC-MS/MS analysis. The class given is ADME, organism-based.
A short description of data set [7]: Cmax in Sprague-Dawley rat at 0.1 mg/kg, iv by LC-MS/MS analysis. Details: dose 0.1 mg/kg, route iv. The class given is ADME, organism-based. To be noted: in vivo.
Data set [8] is described as follows: AUC (0 to infinity) in Sprague-Dawley rat at 0.1 mg/kg, iv by LC-MS/MS analysis. The class given is ADME, organism-based. Details: dose 0.1 mg/kg, route iv. To be noted: in vivo.
Data set [9] in a line: Tmax in Sprague-Dawley rat at 0.1 mg/kg, iv by LC-MS/MS analysis. Format: ADME, organism-based. The note with it: in vivo.
Data set [10] can be described thus: Drug concentration in Sprague-Dawley rat brain at 1 mg/kg, po measured after 4 hrs by LC-MS/MS analysis. The class given is ADME, organism-based. To be noted: read-out: Ct.

On to `O=S1(=O)NCc2cccc(-c3ccc(-c4ccccc4F)cc3)c2O1`, for which the Activity in data set [1] was -2.6%; in [2], “Non-Toxic”. The AUC(0-t) (in general, exposure summed from dosing to a finite time, without extrapolation to infinity) in data set [3] was 805 ng·h/mL. The outcome with Mus musculus was Active. In data set [4], the concentration at 2 h was 133 ng/g. In data set [5], this compound had a concentration at 6 h of 54.2 ng/mL. In addition, the concentration at 4 h in data set [6] was found to be 79.3 ng/mL; in data set [10], 120 ng/g. Moreover, in data set [7], the peak level (Cmax) was 152 ng/mL. Besides, in data set [8], the AUC(0-inf) – broadly, total exposure, with the tail of the curve extrapolated – amounted to 129 ng·h/mL. Further, the Tmax (in general, the time at which the peak concentration occurs) in data set [9] turned out to be 4.8 min.
